{"source": "paper PMC11062894", "about": "“Protein-based bandpass filters for controlling cellular signaling with chemical inputs” (Nature Chemical Biology, 2023)", "tested_on": "GEMS receptors with CBPvene (Bcl2–LD3 and Bcl2high variants), STAT3-driven SEAP in HEK293T cells", "test": "GEMS SEAP reporter assay, CBPvene (Bcl2high, LD3-v and Bcl2-v variants) with venetoclax", "assay_type": "cell-based", "key": {"[1]": {"details": "Supp Fig 10b, Bcl2-v4, venetoclax 316 nM"}, "[2]": {"details": "Supp Fig 10b, Bcl2-v4, venetoclax 1000 nM"}, "[3]": {"details": "Supp Fig 10b, Bcl2-v4, venetoclax 3160 nM"}, "[4]": {"details": "Supp Fig 10b, Bcl2-v4, venetoclax 10000 nM"}, "[5]": {"details": "Supp Fig 10b, Bcl2-v5, venetoclax 1 nM"}, "[6]": {"details": "Supp Fig 10b, Bcl2-v5, venetoclax 3.16 nM"}, "[7]": {"details": "Supp Fig 10b, Bcl2-v5, venetoclax 10 nM"}, "[8]": {"details": "Supp Fig 10b, Bcl2-v5, venetoclax 31.6 nM"}, "[9]": {"details": "Supp Fig 10b, Bcl2-v5, venetoclax 100 nM"}, "[10]": {"details": "Supp Fig 10b, Bcl2-v5, venetoclax 316 nM"}, "[11]": {"details": "Supp Fig 10b, Bcl2-v5, venetoclax 1000 nM"}, "[12]": {"details": "Supp Fig 10b, Bcl2-v5, venetoclax 3160 nM"}, "[13]": {"details": "Supp Fig 10b, Bcl2-v5, venetoclax 10000 nM"}, "[14]": {"details": "Supp Fig 10b, Bcl2-v6, venetoclax 1 nM"}, "[15]": {"details": "Supp Fig 10b, Bcl2-v6, venetoclax 3.16 nM"}, "[16]": {"details": "Supp Fig 10b, Bcl2-v6, venetoclax 10 nM"}, "[17]": {"details": "Supp Fig 10b, Bcl2-v6, venetoclax 31.6 nM"}, "[18]": {"details": "Supp Fig 10b, Bcl2-v6, venetoclax 100 nM"}, "[19]": {"details": "Supp Fig 10b, Bcl2-v6, venetoclax 316 nM"}, "[20]": {"details": "Supp Fig 10b, Bcl2-v6, venetoclax 1000 nM"}, "[21]": {"details": "Supp Fig 10b, Bcl2-v6, venetoclax 3160 nM"}, "[22]": {"details": "Supp Fig 10b, Bcl2-v6, venetoclax 10000 nM"}, "[23]": {"details": "Supp Fig 10b, Bcl2, venetoclax 1 nM"}, "[24]": {"details": "Supp Fig 10b, Bcl2, venetoclax 3.16 nM"}, "[25]": {"details": "Supp Fig 10b, Bcl2, venetoclax 10 nM"}, "[26]": {"details": "Supp Fig 10b, Bcl2, venetoclax 31.6 nM"}, "[27]": {"details": "Supp Fig 10b, Bcl2, venetoclax 100 nM"}, "[28]": {"details": "Supp Fig 10b, Bcl2, venetoclax 316 nM"}, "[29]": {"details": "Supp Fig 10b, Bcl2, venetoclax 1000 nM"}, "[30]": {"details": "Supp Fig 10b, Bcl2, venetoclax 3160 nM"}, "[31]": {"details": "Supp Fig 10b, Bcl2, venetoclax 10000 nM"}, "[32]": {"details": "Supp Fig 10c, Bcl2-v1, venetoclax 1 nM"}, "[33]": {"details": "Supp Fig 10c, Bcl2-v1, venetoclax 3.16 nM"}, "[34]": {"details": "Supp Fig 10c, Bcl2-v2, venetoclax 1 nM"}, "[35]": {"details": "Supp Fig 10c, Bcl2-v2, venetoclax 3.16 nM"}}}
{"molecule": "CC1(C)CCC(CN2CCN(c3ccc(C(=O)NS(=O)(=O)c4ccc(NCC5CCOCC5)c([N+](=O)[O-])c4)c(Oc4cnc5[nH]ccc5c4)c3)CC2)=C(c2ccc(Cl)cc2)C1", "note": "[Venetoclax]", "values": [{"measurement": "SEAP normalized (max=100)", "setting": "Supp Fig 10b, Bcl2-v4, venetoclax 100 nM", "value": 78.5961}, {"measurement": "SEAP", "setting": "[1]", "value": 14.4979}, {"measurement": "SEAP normalized (max=100)", "setting": "[1]", "value": 43.8128}, {"measurement": "SEAP", "setting": "[2]", "value": 9.936}, {"measurement": "SEAP normalized (max=100)", "setting": "[2]", "value": 30.0279}, {"measurement": "SEAP", "setting": "[3]", "value": 8.423}, {"measurement": "SEAP normalized (max=100)", "setting": "[3]", "value": 25.4557}, {"measurement": "SEAP", "setting": "[4]", "value": 7.624}, {"measurement": "SEAP normalized (max=100)", "setting": "[4]", "value": 23.0384}, {"measurement": "SEAP", "setting": "[5]", "value": 45.7217}, {"measurement": "SEAP normalized (max=100)", "setting": "[5]", "value": 92.4038}, {"measurement": "SEAP", "setting": "[6]", "value": 49.4803}, {"measurement": "SEAP normalized (max=100)", "setting": "[6]", "value": 100}, {"measurement": "SEAP", "setting": "[7]", "value": 40.0805}, {"measurement": "SEAP normalized (max=100)", "setting": "[7]", "value": 81.0029}, {"measurement": "SEAP", "setting": "[8]", "value": 46.2116}, {"measurement": "SEAP normalized (max=100)", "setting": "[8]", "value": 93.3938}, {"measurement": "SEAP", "setting": "[9]", "value": 42.8958}, {"measurement": "SEAP normalized (max=100)", "setting": "[9]", "value": 86.6926}, {"measurement": "SEAP", "setting": "[10]", "value": 30.6164}, {"measurement": "SEAP normalized (max=100)", "setting": "[10]", "value": 61.8759}, {"measurement": "SEAP", "setting": "[11]", "value": 14.0666}, {"measurement": "SEAP normalized (max=100)", "setting": "[11]", "value": 28.4288}, {"measurement": "SEAP", "setting": "[12]", "value": 10.2265}, {"measurement": "SEAP normalized (max=100)", "setting": "[12]", "value": 20.6679}, {"measurement": "SEAP", "setting": "[13]", "value": 6.4792}, {"measurement": "SEAP normalized (max=100)", "setting": "[13]", "value": 13.0945}, {"measurement": "SEAP", "setting": "[14]", "value": 50.15}, {"measurement": "SEAP normalized (max=100)", "setting": "[14]", "value": 13.184}, {"measurement": "SEAP", "setting": "[15]", "value": 55.0335}, {"measurement": "SEAP normalized (max=100)", "setting": "[15]", "value": 14.4678}, {"measurement": "SEAP", "setting": "[16]", "value": 53.9332}, {"measurement": "SEAP normalized (max=100)", "setting": "[16]", "value": 14.1785}, {"measurement": "SEAP", "setting": "[17]", "value": 141.748}, {"measurement": "SEAP normalized (max=100)", "setting": "[17]", "value": 37.2641}, {"measurement": "SEAP", "setting": "[18]", "value": 380.387}, {"measurement": "SEAP normalized (max=100)", "setting": "[18]", "value": 100}, {"measurement": "SEAP", "setting": "[19]", "value": 330.205}, {"measurement": "SEAP normalized (max=100)", "setting": "[19]", "value": 86.8077}, {"measurement": "SEAP", "setting": "[20]", "value": 170.706}, {"measurement": "SEAP normalized (max=100)", "setting": "[20]", "value": 44.877}, {"measurement": "SEAP", "setting": "[21]", "value": 26.4901}, {"measurement": "SEAP normalized (max=100)", "setting": "[21]", "value": 6.964}, {"measurement": "SEAP", "setting": "[22]", "value": 10.3289}, {"measurement": "SEAP normalized (max=100)", "setting": "[22]", "value": 2.715}, {"measurement": "SEAP", "setting": "[23]", "value": 34.2584}, {"measurement": "SEAP normalized (max=100)", "setting": "[23]", "value": 5.865}, {"measurement": "SEAP", "setting": "[24]", "value": 39.5038}, {"measurement": "SEAP normalized (max=100)", "setting": "[24]", "value": 6.763}, {"measurement": "SEAP", "setting": "[25]", "value": 88.7679}, {"measurement": "SEAP normalized (max=100)", "setting": "[25]", "value": 15.1973}, {"measurement": "SEAP", "setting": "[26]", "value": 235.479}, {"measurement": "SEAP normalized (max=100)", "setting": "[26]", "value": 40.3146}, {"measurement": "SEAP", "setting": "[27]", "value": 448.604}, {"measurement": "SEAP normalized (max=100)", "setting": "[27]", "value": 76.8023}, {"measurement": "SEAP", "setting": "[28]", "value": 584.102}, {"measurement": "SEAP normalized (max=100)", "setting": "[28]", "value": 100}, {"measurement": "SEAP", "setting": "[29]", "value": 347.384}, {"measurement": "SEAP normalized (max=100)", "setting": "[29]", "value": 59.4733}, {"measurement": "SEAP", "setting": "[30]", "value": 20.111}, {"measurement": "SEAP normalized (max=100)", "setting": "[30]", "value": 3.443}, {"measurement": "SEAP", "setting": "[31]", "value": 12.4887}, {"measurement": "SEAP normalized (max=100)", "setting": "[31]", "value": 2.138}, {"measurement": "SEAP", "setting": "[32]", "value": 26.1238}, {"measurement": "SEAP normalized (max=100)", "setting": "[32]", "value": 100}, {"measurement": "SEAP", "setting": "[33]", "value": 24.5196}, {"measurement": "SEAP normalized (max=100)", "setting": "[33]", "value": 93.8591}, {"measurement": "SEAP", "setting": "[34]", "value": 41.9684}, {"measurement": "SEAP normalized (max=100)", "setting": "[34]", "value": 37.8578}, {"measurement": "SEAP", "setting": "[35]", "value": 39.8265}, {"measurement": "SEAP normalized (max=100)", "setting": "[35]", "value": 35.9258}, {"measurement": "SEAP", "setting": "Supp Fig 10c, Bcl2-v3, venetoclax 1 nM", "value": 35.0656}]}
